Literature values as cited in patent US11219662B2, “Methods for treating hypotension in a patient that has received an ACE inhibitor by administering angiotensin II” (La Jolla Pharma, LLC, priority 2016, dated 2022).

Conditions: no experiment described

Compound	activity relative to the activity of angiotensin II (of the activity of angiotensin II, background statement)	activity compared with angiotensin II (qualitative background statement)
Arg-Val-Tyr-Ile-His-Pro-Phe (RVYIHPF; printed: Arg-Val-Tyr-Ile-His-Pro-Phe) [Angiotensin III]	approximately 40%	–
CC[C@H](C)[C@H](NC(=O)[C@H](Cc1ccc(O)cc1)NC(=O)[C@@H](N)C(C)C)C(=O)N[C@@H](Cc1cnc[nH]1)C(=O)N1CCC[C@H]1C(=O)N[C@@H](Cc1ccccc1)C(=O)O [Angiotensin IV, Val-Tyr-Ile-His-Pro-Phe]	–	less activity than angiotensin II
